From article PMC8385015, “Tumour-on-chip microfluidic platform for assessment of drug pharmacokinetics and treatment response” (Communications Biology, 2021)
Values joined by “and” are separate entries in the source; they are usually repeats but may differ in a detail not shown here. Identical values can stand only once. Like-named read-outs stand apart in the source and are kept apart here.

Experiments:
SW620 xenograft = format: in vivo; conditions: irinotecan 50 mg/kg IP day 1 weekly + vehicle PO, single animals
Experimental: We tested different weekly in vivo dosing schedules, previously evaluated in SW620 spheroids on the chip (Fig. 5a) using matched exposure profiles to those previously observed in mouse plasma.
Male immunocompromised Hsd:Athymic Nude-Foxn1nu mice (Envigo) were used for xenograft tumour implantation. […] Animals were randomised into groups of 9–15 when tumours reached a volume of ~0.30 cm[3] and 4 weekly cycles of treatment commenced.
Tumours were measured twice weekly (length × width) by bilateral Vernier calliper measurements and tumour volume calculated using Mousetrap software. Tumour growth inhibition from start of treatment was assessed by comparison of the mean change in tumour volume for the control and treated groups using the Mousetrap application and represented as TGI.

in vivo = conditions: mouse
Experimental: The samples were collected at 5, 15, 40 min, and 1, 2, 4, 6, 8 and 24 h.
Whole blood was mixed 1:5 with PBS and centrifuged at 1500×g for 3 min at 4 °C, and the plasma was extracted and frozen at –80 °C.
Using this PK model, a time course of free plasma concentrations of both drugs was simulated (Table 1).
Acidified acetonitrile ([…]) was added with the internal standard, followed by centrifugation at 3000 rpm for 10 min. Supernatant ([…]) was then removed to a clean plate and dried under nitrogen. […]
Supplementary Method 8. Pharmacokinetic models parameters used for simulations
AZD156 PK model and PK parameters used for simulations

[1] = population PK model parameter, mean

**Q.** With `CCc1c2c(nc3ccc(OC(=O)N4CCC(N5CCCCC5)CC4)cc13)-c1cc3c(c(=O)n1C2)COC(=O)[C@]3(O)CC` [Irinotecan] as the compound, how does the Tumour size (SW620 xenograft; day 7 (fig 5b 01)) read?
**A.** The Tumour size was 0.6466 cm^3 and 0.9799 cm^3 and 0.6666 cm^3 and 1.05 cm^3 and 0.9864 cm^3 and 1.225 cm^3 and 0.8608 cm^3 and 0.8801 cm^3 and 0.7589 cm^3 and 0.364 cm^3 and 1.22 cm^3 and 1.71 cm^3 and 0.9487 cm^3 and 0.9159 cm^3 and 0.8306 cm^3.

**Q.** And the Tumour size (SW620 xenograft; day 15 (fig 5b 02))?
**A.** The Tumour size was 1.28 cm^3 and 1.619 cm^3 and 0.8212 cm^3 and 0.6967 cm^3 and 1.922 cm^3 and 1.901 cm^3 and 1.374 cm^3 and 0.7853 cm^3 and 2.931 cm^3.

**Q.** And the Tumour size (SW620 xenograft; day 35 (fig 5b 03))?
**A.** Its Tumour size is 3.4844 cm^3 and 2.894 cm^3 and 2.205 cm^3 and 2.6873 cm^3 and 2.88 cm^3 and 1.604 cm^3 and 1.682 cm^3.

**Q.** And the Km (in vivo; female, CB-17 SCID, in vivo)?
**A.** The Km was 6.12 nM.

**Q.** And the “Q/(1-F4)” value (in vivo; female, CB-17 SCID, in vivo)?
**A.** Its value is 0.0574 L/h.

**Q.** And the “FM*” value (in vivo; [1])?
**A.** The value was 0.286.

**Q.** And the “V2/(1-F4)” value (in vivo; [1])?
**A.** The value was 0.0161 L.

**Q.** What about the “V3/(1-F4)” value (in vivo; [1]) of the same compound?
**A.** Its value is 5.26 L.

**Q.** What about the Vmax (in vivo; [1]) of the same compound?
**A.** Its Vmax is 0.0589 µM/h.

**Q.** And the ka (in vivo; [1])?
**A.** Its ka is 0.454 h⁻¹.
